From patent US5366880A, “Antibiotic agent” (Merck & Co., Inc., priority 1993, dated 1994)
Converted amounts (≈) assume the structure as drawn. *1 amine or outer side, *2 acyl side, *3 side chain or, on linkers, in order; H or OH if unused. Where a SMILES comes first, the peptide text is derived from it. Bridges are numbered along the chain shown (N, C = ends). [ ]: non-standard residue; d: D form. The star is where a group is joined. ξ: configuration not given here. ξOrn(4,5-diOH) = O=C(C(CC(O)C(O)N[*:3])N[*:1])[*:2]; ξhTyr(βξ-OH,γξ-OH) = NC(C(=O)O)C(O)C(O)c1ccc(O)cc1; X2 = NC(=O)CC(O)C(N[*:1])C(=O)[*:2]; X3 = O=C(C1C(O)C(O)CN1[*:1])[*:2]; X1 = CCC(C)CC(C)CCCCCCCCC(=O)*; Hyp = O=C(O)[CH]1C[CH](O)CN1

Tests used:
[1] = tested on: Candida albicans; experiment: minimum fungicidal concentration (MFC), microbroth dilution assay, Candida albicans; type: cell-based; conditions: 24 h
Experimental: (§1) The antifungal properties may be illustrated with the minimum fungicidal concentration (MFC) determinations against certain Candida organisms in a microbroth dilution assay carried out in Yeast Nitrogen Base (Difco) with 1 percent dextrose (YNBD). In carrying out the assay, Compound I was solubilized in 10 percent dimethyl sulfoxide (DMSO) and diluted to 2560 μg/ml. The compound was then diluted to 256 μg/ml in YNBD. 0.15 ml of the suspension was dispensed to the top row of a 96-well plate (each well containing 0.15 ml of YNDB) resulting in a drug concentration of 128 μg/ml. Two-fold dilutions were then made from the top row to obtain final drug concentrations ranging from 128 to 0.06 μg/ml.
(§2) The yeast cultures, maintained on Sabouraud dextrose agar were transferred to YM broth (Difco) and incubated overnight at 35° C. with shaking (250 rpm). After incubation, each culture was diluted in sterile water to yield a final concentration of 1-5×10^6 colony forming units (CFU)/ml.
96-well microplates were inoculated using a MIC-2000 (Dynatech) which delivers 1.5 μl per well yielding a final inoculum per well of 1.5-7.5×10^3 cells. The microplates were incubated at 35° C. for 24 hours. The minimum inhibitory concentrations (MICs) were recorded as the lowest concentrations of drug showing no visible growth.
After recording the MIC, the plates were shaken to resuspend the cells. Thereafter, 1.5 μl samples from the wells in the 96-well microplate were transferred to a single well tray containing Sabouraud dextrose agar. The inoculated trays were incubated 24 hours at 28° C. and then read. The MFC is defined as the lowest concentration of drug showing no growth or less than 4 colonies per spot. The results (three samples) are seen in the following table: ______________________________________ Minimum Fungicidal Concentration (μg/ml) Fungi Compound Compound Strain No. IA IB ______________________________________ Candida albicans MY 1055 2 1 MY 1028 2 0.5 MY 1750 4 1 Candida tropicalis MY 1012 1 0.12 Candida pseudotropicalis MY 1100 4 2 ______________________________________

[2] = tested on: Candida tropicalis; experiment: minimum fungicidal concentration (MFC), microbroth dilution assay, Candida tropicalis; type: cell-based; conditions: 24 h, strain MY 1012, YNBD
Experimental: as §1, §2
(§3) 96-well microplates were inoculated using a MIC-2000 (Dynatech) which delivers 1.5 μl per well yielding a final inoculum per well of 1.5-7.5×10^3 cells. […] The minimum inhibitory concentrations (MICs) were recorded as the lowest concentrations of drug showing no visible growth.
(§4) After recording the MIC, the plates were shaken to resuspend the cells. […] The inoculated trays were incubated 24 hours at 28° C. and then read. […]

[3] = tested on: Candida pseudotropicalis; experiment: minimum fungicidal concentration (MFC), microbroth dilution assay, Candida pseudotropicalis; type: cell-based; conditions: Kluyveromyces marxianus, 24 h; strain MY 1100; YNBD
Experimental: as §1, §2, §3, §4

[4] = tested on: Pneumocystis carinii; experiment: effectiveness against Pneumocystis carinii pneumonia in immunosuppressed rats; type: in vivo, Sprague-Dawley rats; conditions: subcutaneously twice daily for four days; for Reduction of Cysts / Log Mean # Cysts (± SEGM): rat lung; for Log Mean # Cysts (± SEGM): * significant (t-test); for Survivors: rats
Experimental: Compound I is useful for inhibiting or alleviating Pneumocystis carinii infections. In a representative study, the effectiveness of Compound I in rats were determined. Sprague-Dawley rats (weighing approximatley 250 g) were immunosuppressed with dexasone in the drinking water ([…]) and maintained on a low protein diet for 5 weeks to induce the development of Pneumocystis pneumonia from a latent infection. Before drug treatment 2 rats were sacrificed to confirm the presence of Pneumocystis carinii pneumonia (PCP); both rats had infections. The remaining rats (weighing approximately 150 g) were distributed into groups of 6 and injected twice daily for four days subcutaneously with compound in 0.25 ml of vehicle (10% DMSO in water or water). The control group of 5 rats received vehicle alone. All animals continued to receive dexasone in the drinking water and low protein diet during the drug treatment period. At the completion of treatment all animals were sacrificed, the lungs were removed and processed, and the extent of disease determined by microscopic analysis of stained slides. […] All groups were compared using the student t-test and results marked (*) are significant.

Row | SMILES | MFC ([1]; strain MY 1028, YNBD) [µg/mL] | MFC ([1]; strain MY 1055, YNBD) [µg/mL] | MFC ([1]; strain MY 1750, YNBD) [µg/mL] | MFC [2] [µg/mL] | MFC [3] [µg/mL] | Reduction of Cysts ([4]; 0.15 mg/kg) [%] | Log Mean # Cysts (± SEGM) ([4]; 0.15 mg/kg) | Survivors ([4]; 0.15 mg/kg) | Reduction of Cysts ([4]; 0.30 mg/kg) [%] | Log Mean # Cysts (± SEGM) ([4]; 0.30 mg/kg) | Survivors ([4]; 0.30 mg/kg) | Reduction of Cysts ([4]; 0.60 mg/kg) [%] | Log Mean # Cysts (± SEGM) ([4]; 0.60 mg/kg) | Survivors ([4]; 0.60 mg/kg) | further results
1 | CCC(C)CC(C)CCCCCCCCC(=O)NC1CC(O)C(O)NC(=O)C2CC(O)CN2C(=O)C(C(O)CC(N)=O)NC(=O)C(C(O)C(O)c2ccc(O)cc2)NC(=O)C2CC(O)CN2C(=O)C(C(C)O)NC1=O (stereo not drawn) [Compound IA] (X1-[ξOrn(4,5-diOH)]T[Hyp][ξhTyr(βξ-OH,γξ-OH)][X2][Hyp]; lactam 1-C; configuration not given here) | 2 (≈ 1.88 µM) | 2 (≈ 1.88 µM) | 4 (≈ 3.76 µM) | 1 (≈ 0.939 µM) | 4 (≈ 3.76 µM) | 88.5 | 6.32 ± .17 | 6/6 | 94.6 | 5.99 ± .18 | 5/6 | 97.4 | 5.68 ± .19 | 6/6 | Reduction of Cysts ([4]; 1.20 mg/kg): 97.9%; Log Mean # Cysts (± SEGM) ([4]; 1.20 mg/kg): 5.58 ± .11; Survivors ([4]; 1.20 mg/kg): 5/6
2 | CCC(C)CC(C)CCCCCCCCC(=O)NC1CC(O)C(O)NC(=O)C2C(O)C(O)CN2C(=O)C(C(O)CC(N)=O)NC(=O)C(C(O)C(O)c2ccc(O)cc2)NC(=O)C2CC(O)CN2C(=O)C(C(C)O)NC1=O (stereo not drawn) [Compound IB] (X1-[ξOrn(4,5-diOH)]T[Hyp][ξhTyr(βξ-OH,γξ-OH)][X2][X3]; lactam 1-C; configuration not given here) | 0.5 (≈ 0.462 µM) | 1 (≈ 0.925 µM) | 1 (≈ 0.925 µM) | 0.12 (≈ 0.111 µM) | 2 (≈ 1.85 µM) | 98.7 | 5.59 ± .11 | 6/6 | 99.4 | 5.22 ± .10 | 6/6 | 99.1 | 5.41 ± .17 | 6/6 | Reduction of Cysts ([4]; 0.03 mg/kg): 95.0%; Log Mean # Cysts (± SEGM) ([4]; 0.03 mg/kg): 6.16 ± .14; Survivors ([4]; 0.03 mg/kg): 6/6; Reduction of Cysts ([4]; 0.07 mg/kg): 96.8%; Log Mean # Cysts (± SEGM) ([4]; 0.07 mg/kg): 5.97 ± .18; Survivors ([4]; 0.07 mg/kg): 6/6
